Values after ≈ are worked out from the molar mass of the structure shown.
What was measured:
Assay type in all cases: functional
Staphylococcus aureus [1] = test: Antibacterial activity against methicillin-resistant Staphylococcus aureus 003 after 18 hrs
Staphylococcus aureus [2] = test: Antibacterial activity against methicillin-resistant Staphylococcus aureus KIST4 after 18 hrs
Staphylococcus aureus [3] = test: Antibacterial activity against methicillin-resistant Staphylococcus aureus 004 after 18 hrs
Staphylococcus aureus [4] = test: Antibacterial activity against methicillin-resistant Staphylococcus aureus Y-80-12-1999 after 18 hrs
[5] = tested on: Staphylococcus epidermidis; test: Antibacterial activity against ofloxacin-resistant Staphylococcus epidermidis 291 after 18 hrs
Staphylococcus aureus [6] = test: Antibacterial activity against methicillin-resistant Staphylococcus aureus Y-80-12-1109 after 18 hrs
Staphylococcus aureus [7] = test: Antibacterial activity against methicillin-resistant Staphylococcus aureus KIST2 after 18 hrs
Staphylococcus aureus [8] = test: Antibacterial activity against methicillin-resistant Staphylococcus aureus Y-80-12-844 after 18 hrs
Staphylococcus aureus [9] = test: Antibacterial activity against methicillin-resistant Staphylococcus aureus KIST1 after 18 hrs
[10] = tested on: Staphylococcus epidermidis; test: Antibacterial activity against ofloxacin-resistant Staphylococcus epidermidis 178 after 18 hrs
Staphylococcus aureus [11] = test: Antibacterial activity against methicillin-resistant Staphylococcus aureus KIST3 after 18 hrs
A549 = test: Cytotoxicity against human A549 cells; conditions: read-out: ED50 (the source's name)
HCT-15 = test: Cytotoxicity against human HCT15 cells; conditions: read-out: ED50 (the source's name)
SK-MEL-2 = test: Cytotoxicity against human SK-MEL-2 cells; conditions: read-out: ED50 (the source's name)
SK-OV-3 = test: Cytotoxicity against human SKOV3 cells; conditions: read-out: ED50 (the source's name)
XF498 = test: Cytotoxicity against human XF498 cells; conditions: read-out: ED50 (the source's name)

SMILES	MIC (Staphylococcus aureus [1]) [µg/mL]	MIC (Staphylococcus aureus [2]) [µg/mL]	MIC (Staphylococcus aureus [3]) [µg/mL]	MIC (Staphylococcus aureus [4]) [µg/mL]	MIC [5] [µg/mL]	MIC (Staphylococcus aureus [6]) [µg/mL]	MIC (Staphylococcus aureus [7]) [µg/mL]	MIC (Staphylococcus aureus [8]) [µg/mL]	MIC (Staphylococcus aureus [9]) [µg/mL]	MIC [10] [µg/mL]	MIC (Staphylococcus aureus [11]) [µg/mL]	EC50 (A549) [µg/mL]	EC50 (HCT-15) [µg/mL]	EC50 (SK-MEL-2) [µg/mL]	EC50 (SK-OV-3) [µg/mL]	EC50 (XF498) [µg/mL]
O=C(NCCSSSCCNC(=O)/C(Cc1ccc(O)c(Br)c1)=N/O)/C(Cc1ccc(O)c(Br)c1)=N/O	3.1 (≈ 4.45 µM)	3.1 (≈ 4.45 µM)	3.1 (≈ 4.45 µM)	6.3 (≈ 9.05 µM)	0.8 (≈ 1.15 µM)	6.3 (≈ 9.05 µM)	3.1 (≈ 4.45 µM)	25 (≈ 35.9 µM)	3.1 (≈ 4.45 µM)	0.8 (≈ 1.15 µM)	6.3 (≈ 9.05 µM)	–	–	–	–	–
O=C(NCCSSCCNC(=O)/C(Cc1cc(Br)c(O)c(Br)c1)=N/O)/C(Cc1ccc(O)c(Br)c1)=N/O	12.5 (≈ 16.8 µM)	12.5 (≈ 16.8 µM)	12.5 (≈ 16.8 µM)	12.5 (≈ 16.8 µM)	3.2 (≈ 4.31 µM)	12.5 (≈ 16.8 µM)	12.5 (≈ 16.8 µM)	25 (≈ 33.6 µM)	12.5 (≈ 16.8 µM)	3.2 (≈ 4.31 µM)	12.5 (≈ 16.8 µM)	1.34 (≈ 1.8 µM)	3.31 (≈ 4.45 µM)	0.9 (≈ 1.21 µM)	1.38 (≈ 1.86 µM)	0.92 (≈ 1.24 µM)
O=C(NCCSSCCNC(=O)/C(Cc1cc(Br)c(O)c(-c2cc(C/C(=N\O)C(=O)NCCSSCCNC(=O)/C(Cc3ccc(O)c(Br)c3)=N/O)cc(Br)c2O)c1)=N/O)/C(Cc1ccc(O)c(Br)c1)=N/O [BISAPRASIN]	12.5 (≈ 9.42 µM)	6.3 (≈ 4.75 µM)	6.3 (≈ 4.75 µM)	50 (≈ 37.7 µM)	12.5 (≈ 9.42 µM)	50 (≈ 37.7 µM)	6.3 (≈ 4.75 µM)	25 (≈ 18.8 µM)	12.5 (≈ 9.42 µM)	6.3 (≈ 4.75 µM)	6.3 (≈ 4.75 µM)	3.4 (≈ 2.56 µM)	6 (≈ 4.52 µM)	2.94 (≈ 2.22 µM)	2.78 (≈ 2.1 µM)	2.44 (≈ 1.84 µM)
O=C(NCCSSCCNC(=O)/C(Cc1ccc(Oc2cc(C/C(=N\O)C(=O)NCCSSCCNC(=O)/C(Cc3ccc(O)c(Br)c3)=N/O)cc(Br)c2O)c(Br)c1)=N/O)/C(Cc1ccc(O)c(Br)c1)=N/O [BISPSAMMAPLIN A]	> 50	> 50	> 50	> 50	> 50	> 50	> 50	> 50	> 50	> 50	> 50	1.53 (≈ 1.15 µM)	3.35 (≈ 2.52 µM)	1.02 (≈ 0.769 µM)	1.52 (≈ 1.15 µM)	1.1 (≈ 0.829 µM)
COc1cccc2c1C(=O)c1c(O)c3c(c(O)c1C2=O)C[C@@](O)(C(=O)CO)C[C@@H]3O[C@H]1C[C@H](N)[C@H](O)[C@H](C)O1 [DOXORUBICIN]	–	–	–	–	–	–	–	–	–	–	–	0.04 (≈ 0.0736 µM)	0.09 (≈ 0.166 µM)	0.03 (≈ 0.0552 µM)	0.15 (≈ 0.276 µM)	0.1 (≈ 0.184 µM)
C[C@@H](O)[C@H]1C(=O)N2C(C(=O)O)=C(S[C@@H]3CN[C@H](C(=O)N(C)C)C3)[C@H](C)[C@H]12 [MEROPENEM]	3.1 (≈ 8.08 µM)	50 (≈ 130 µM)	3.1 (≈ 8.08 µM)	50 (≈ 130 µM)	1.6 (≈ 4.17 µM)	50 (≈ 130 µM)	3.1 (≈ 8.08 µM)	50 (≈ 130 µM)	25 (≈ 65.2 µM)	0.8 (≈ 2.09 µM)	50 (≈ 130 µM)	–	–	–	–	–
O=C(NCCSSCCNC(=O)/C(Cc1ccc(O)c(Br)c1)=N/O)/C(Cc1ccc(O)c(Br)c1)=N/O [PSAMMAPLIN A]	–	–	–	–	–	–	–	–	–	–	–	0.57 (≈ 0.858 µM)	0.68 (≈ 1.02 µM)	0.13 (≈ 0.196 µM)	0.14 (≈ 0.211 µM)	0.57 (≈ 0.858 µM)
COC(=O)NCCSSCCNC(=O)/C(Cc1ccc(O)c(Br)c1)=N/O [PSAMMAPLIN D]	> 25	> 25	> 25	> 25	> 25	> 25	> 25	> 25	> 25	> 25	> 25	0.8 (≈ 1.72 µM)	1.23 (≈ 2.64 µM)	0.2 (≈ 0.429 µM)	0.17 (≈ 0.365 µM)	0.6 (≈ 1.29 µM)

Source: ChEMBL document CHEMBL1147252, “New bromotyrosine derivatives from an association of two sponges, Jaspis wondoensis and Poecillastra wondoensis” (2003)
